Reference: US10517889B2, “Modulators of SMAD7 expression” (Ionis Pharmaceuticals, Inc., priority 2017, dated 2019)
Strand notation (5' to 3'): a small letter for the sugar, then the base; units joined by * are phosphorothioate-linked, units joined directly phosphodiester-linked; [ ] holds rarer units or linkages, { } end groups; capitals alone tell only the bases. k = constrained ethyl (cEt); [5mC] = 5-methylcytosine; d = 2'-deoxy (DNA)

Test system: human SMAD7 mRNA
Assay: Antisense inhibition of human SMAD7 mRNA expression in Hep3B cells by 3-10-3 cEt gapmers, 10,000 nM, electroporation (Example 2)
Assay type: cell-based
Conditions: approximately 24 hours
How it was run: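 SMAD7 mRNA was measured by real-time PCR (RTS5062) with RiboGreen total-RNA normalization, about 24 h after 10,000 nM gapmer was delivered by electroporation into Hep3B cells at 20,000 per well. Gapmers were 16-mer 3-10-3 cEt, fully phosphorothioate; values are % inhibition versus untreated controls.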

[1] = Hep3B cells, 10,000 nM antisense oligonucleotide, electroporation, RT-PCR primer probe set RTS5062, relative to untreated control cells
[2] = Hep3B cells, electroporation with 10,000 nM antisense oligonucleotide, SMAD7 mRNA by RT-PCR (RTS5062), relative to untreated control cells

Substance	% Inhibition [1]	% Inhibition [2]
800038 (kT*kG*k[5mC]*dT*d[5mC]*d[5mC]*dT*d[5mC]*d[5mC]*d[5mC]*dT*d[5mC]*dG*k[5mC]*kT*kG; antisense) [compound 800038]	2%	–
800039 (kG*kG*kT*dT*dA*dA*dT*dG*dG*d[5mC]*d[5mC]*d[5mC]*dA*kG*k[5mC]*k[5mC]; antisense) [compound 800039]	–	27%
800040 (k[5mC]*kG*k[5mC]*d[5mC]*dA*dG*d[5mC]*dA*dA*dT*dG*dT*dG*k[5mC]*kT*kG; antisense) [compound 800040]	–	15%
800041 (kG*k[5mC]*k[5mC]*dA*d[5mC]*d[5mC]*dT*dA*dG*dG*d[5mC]*dA*dA*kG*kG*kG; antisense) [compound 800041]	–	0%
800042 (kT*kG*kT*d[5mC]*dA*dG*d[5mC]*d[5mC]*dA*d[5mC]*d[5mC]*dT*dA*kG*kG*k[5mC]; antisense) [compound 800042]	–	0%
800043 (kT*kG*k[5mC]*d[5mC]*dA*dG*dG*d[5mC]*d[5mC]*dT*dG*dT*d[5mC]*kA*kG*k[5mC]; antisense) [compound 800043]	–	31%
800044 (k[5mC]*k[5mC]*kT*dG*dA*dG*dA*dT*d[5mC]*dG*dA*dG*dG*kT*kG*k[5mC]; antisense) [compound 800044]	–	18%
800045 (kG*kA*kG*dG*dA*dG*d[5mC]*dA*dA*dG*dG*dG*dA*kG*kT*kG; antisense) [compound 800045]	–	59%
800046 (kG*kG*k[5mC]*d[5mC]*dA*dA*d[5mC]*dA*dG*dG*dA*dG*dG*kA*kG*kG; antisense) [compound 800046]	–	42%
800047 (antisense kA*k[5mC]*k[5mC]*d[5mC]*dA*d[5mC]*dT*dG*dA*dA*dA*d[5mC]*d[5mC]*kT*kG*kG) [compound 800047]	–	28%
800049 (antisense kA*kA*k[5mC]*dA*dA*dA*d[5mC]*d[5mC]*dT*dG*dG*d[5mC]*d[5mC]*kT*kG*kG) [compound 800049]	7%	–
800050 (antisense kG*k[5mC]*kT*dT*dA*dT*dT*dT*dT*d[5mC]*d[5mC]*d[5mC]*dA*kA*kT*kT) [compound 800050]	10%	–
800051 (antisense k[5mC]*kA*kG*d[5mC]*dA*d[5mC]*dA*dT*d[5mC]*d[5mC]*dA*d[5mC]*d[5mC]*k[5mC]*kT*kT) [compound 800051]	20%	–
800052 (antisense k[5mC]*k[5mC]*k[5mC]*dT*d[5mC]*dT*dT*d[5mC]*d[5mC]*dG*dG*dG*dA*kG*kG*k[5mC]) [compound 800052]	0%	–
800053 (antisense k[5mC]*kT*kA*d[5mC]*dA*d[5mC]*d[5mC]*dA*dA*dA*dG*dA*d[5mC]*k[5mC]*kT*kG) [compound 800053]	63%	–
800054 (antisense kG*k[5mC]*kT*dA*d[5mC]*dA*d[5mC]*d[5mC]*dA*dA*dA*dG*dA*k[5mC]*k[5mC]*kT) [compound 800054]	62%	–
800055 (antisense kA*kT*kA*dA*dA*d[5mC]*dT*dT*dG*dT*dG*dA*dG*k[5mC]*kG*k[5mC]) [compound 800055]	8%	–
800056 (antisense kT*kG*k[5mC]*dT*dA*dA*dT*dA*dA*dA*d[5mC]*dT*dT*kG*kT*kG) [compound 800056]	7%	–
800057 (antisense kT*kT*k[5mC]*dA*d[5mC]*dT*dT*dG*dT*dT*dT*d[5mC]*dT*kG*k[5mC]*kA) [compound 800057]	46%	–
800058 (antisense kT*k[5mC]*kA*dT*d[5mC]*dA*dG*dG*d[5mC]*dA*dT*dT*d[5mC]*kA*k[5mC]*kT) [compound 800058]	51%	–
800059 (antisense kA*kA*kA*dA*d[5mC]*dA*dA*dG*dA*d[5mC]*dA*dG*dG*kG*kA*k[5mC]) [compound 800059]	–	31%
800060 (antisense k[5mC]*k[5mC]*k[5mC]*d[5mC]*dA*dA*dA*dA*dG*d[5mC]*dT*d[5mC]*d[5mC]*kA*k[5mC]*kA) [compound 800060]	–	5%
